The values below come from US11161842B2, “Bifunctional molecules for degradation of EGFR and methods of use” (Dana-Farber Cancer Institute, Inc., priority 2016, dated 2021).

A value given as a limit tells only on which side of the number the result lay.

The target in assay [1] is T1, T790M/L858R transformed Ba/F3 cells (Homo sapiens, UniProt P00533, T790M/L858R, cells depend on it).
T1 construct: The constructs were shuttled into the retroviral vector JP 1540 using the BD Creator™ System (BD Biosciences)
T1 sequence (P00533 whole entry T790M/L858R): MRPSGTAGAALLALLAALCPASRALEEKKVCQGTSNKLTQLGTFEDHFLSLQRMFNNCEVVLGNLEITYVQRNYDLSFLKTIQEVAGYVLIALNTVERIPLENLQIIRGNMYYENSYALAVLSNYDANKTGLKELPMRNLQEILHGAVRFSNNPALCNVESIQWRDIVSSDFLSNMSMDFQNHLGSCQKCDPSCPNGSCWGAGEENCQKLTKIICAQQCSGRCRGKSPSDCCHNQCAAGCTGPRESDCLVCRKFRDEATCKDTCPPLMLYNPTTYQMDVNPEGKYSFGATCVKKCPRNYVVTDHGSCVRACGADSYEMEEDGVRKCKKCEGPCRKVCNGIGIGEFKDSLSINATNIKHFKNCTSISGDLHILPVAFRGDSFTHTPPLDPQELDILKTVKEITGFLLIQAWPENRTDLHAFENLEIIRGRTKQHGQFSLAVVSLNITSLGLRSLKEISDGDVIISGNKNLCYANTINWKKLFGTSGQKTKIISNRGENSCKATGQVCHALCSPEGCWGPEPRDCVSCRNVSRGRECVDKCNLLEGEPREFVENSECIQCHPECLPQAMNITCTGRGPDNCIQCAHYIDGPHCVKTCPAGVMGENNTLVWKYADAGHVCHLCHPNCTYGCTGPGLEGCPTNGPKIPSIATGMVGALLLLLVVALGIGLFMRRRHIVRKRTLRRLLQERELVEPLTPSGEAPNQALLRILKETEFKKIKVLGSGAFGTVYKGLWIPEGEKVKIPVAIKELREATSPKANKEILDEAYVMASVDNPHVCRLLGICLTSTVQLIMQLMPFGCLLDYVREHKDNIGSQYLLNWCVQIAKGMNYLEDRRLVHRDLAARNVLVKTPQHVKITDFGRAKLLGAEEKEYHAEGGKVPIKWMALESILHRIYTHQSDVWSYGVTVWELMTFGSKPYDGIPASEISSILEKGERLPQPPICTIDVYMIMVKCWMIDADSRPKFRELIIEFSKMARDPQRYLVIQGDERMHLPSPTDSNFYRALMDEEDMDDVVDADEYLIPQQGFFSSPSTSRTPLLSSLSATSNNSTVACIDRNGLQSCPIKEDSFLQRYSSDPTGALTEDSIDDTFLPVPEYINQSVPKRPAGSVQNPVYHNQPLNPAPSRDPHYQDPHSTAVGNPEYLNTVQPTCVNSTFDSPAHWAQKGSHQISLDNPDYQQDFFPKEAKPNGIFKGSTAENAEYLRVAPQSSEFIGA
In words: Ba/F3 cell proliferation (MTS) assay, T790M/L858R. Format: cell-based, murine. The conditions noted are these: for EC50: antiproliferative activity; for % control: compound at 1 μM, inhibition of growth as percent of control. The source says: The EGFR mutant L858R, Del E746_A750, L858R/T790M, DelE746_A750/T790M, L858R/T790M/C797S and Del/T790M/C797S Ba/F3 cells have been previously described (Zhou, W., Ercan, D., Chen, L., Yun, C. H., Li, D., Capelletti, M., Cortot, A. B., Chirieac, L., Iacob, R. E., Padera, R., et al. “Novel mutant-selective EGFR kinase inhibitors against EGFR T790M,” Nature 462, (2009), 1070-1074). All cell lines were maintained in RPMI 1640 (Cellgro; Mediatech Inc., Herndon, Calif.) supplemented with 10% FBS 100 units/mL penicillin, 100 units/mL streptomycin, and 2 mM glutamine. L858R cells were maintained in ACL-4 media (Invitrogen, Carlsbad, Calif.) supplemented with 5% FBS, 100 units/mL penicillin, 100 units/mL streptomycin, and 2 mM glutamine. The EGFR I941R mutation was introduced via site directed mutagenesis using the Quick Change Site-Directed Mutagenesis kit (Stratagene; La Jolla, Calif.) according to the manufacturer's instructions. All constructs were confirmed by DNA sequencing. The constructs were shuttled into the retroviral vector JP 1540 using the BD Creator™ System (BD Biosciences). Ba/F3 cells were infected with retrovirus and according to standard protocols, as described previously (Zhou et al, Nature 2009). Stable clones were obtained by selection in puromycin (2 μg/ml).
Growth and inhibition of growth was assessed by MTS assay and was performed according to previously established methods (Zhou et al., Nature 2009). The MTS assay is a colorimetric method for determining the number of viable cells that is based on the bioreduction of MTS by cells to a formazan product that is soluble in cell culture medium and can be detected spectrophotometrically. Ba/F3 cells of different EGFR genotypes were exposed to treatment for 72 hours and the number of cells used per experiment determined empirically and has been previously established (Zhou et al., Nature 2009). All experimental points were set up in six wells and all experiments were repeated at least three times. […] The curves were fitted using a non-linear regression model with a sigmoidal dose response.
Compounds of Table 1 were tested at a concentration of 1 μM against T790M/L858R transformed Ba/F3 cells. The assay, as described in Example 42, measured inhibition of growth as a percent of the inhibitory activity of the control. In Table 1, A is 0<% control <25, B is 25<% control <50, C is 50<% control <75, and D is 75<% control.
Compounds of Table 2 were tested in a T790M/L858R transformed Ba/F3 cell line as described in Example 42 and the EC50 values were calculated. In Table 2, A is EC50<500 nM, B is 500 nM<EC50<1000 nM, C is 1000 nM<EC50<5000 nM, and D is 5000 nM<EC50.

In assay [2] the target is T2, T790M/L858R/C797S transformed Ba/F3 cells (Homo sapiens, UniProt P00533, T790M/C797S/L858R, cells depend on it).
T2 construct: The constructs were shuttled into the retroviral vector JP 1540 using the BD Creator™ System (BD Biosciences)
T2 sequence (P00533 whole entry T790M/C797S/L858R): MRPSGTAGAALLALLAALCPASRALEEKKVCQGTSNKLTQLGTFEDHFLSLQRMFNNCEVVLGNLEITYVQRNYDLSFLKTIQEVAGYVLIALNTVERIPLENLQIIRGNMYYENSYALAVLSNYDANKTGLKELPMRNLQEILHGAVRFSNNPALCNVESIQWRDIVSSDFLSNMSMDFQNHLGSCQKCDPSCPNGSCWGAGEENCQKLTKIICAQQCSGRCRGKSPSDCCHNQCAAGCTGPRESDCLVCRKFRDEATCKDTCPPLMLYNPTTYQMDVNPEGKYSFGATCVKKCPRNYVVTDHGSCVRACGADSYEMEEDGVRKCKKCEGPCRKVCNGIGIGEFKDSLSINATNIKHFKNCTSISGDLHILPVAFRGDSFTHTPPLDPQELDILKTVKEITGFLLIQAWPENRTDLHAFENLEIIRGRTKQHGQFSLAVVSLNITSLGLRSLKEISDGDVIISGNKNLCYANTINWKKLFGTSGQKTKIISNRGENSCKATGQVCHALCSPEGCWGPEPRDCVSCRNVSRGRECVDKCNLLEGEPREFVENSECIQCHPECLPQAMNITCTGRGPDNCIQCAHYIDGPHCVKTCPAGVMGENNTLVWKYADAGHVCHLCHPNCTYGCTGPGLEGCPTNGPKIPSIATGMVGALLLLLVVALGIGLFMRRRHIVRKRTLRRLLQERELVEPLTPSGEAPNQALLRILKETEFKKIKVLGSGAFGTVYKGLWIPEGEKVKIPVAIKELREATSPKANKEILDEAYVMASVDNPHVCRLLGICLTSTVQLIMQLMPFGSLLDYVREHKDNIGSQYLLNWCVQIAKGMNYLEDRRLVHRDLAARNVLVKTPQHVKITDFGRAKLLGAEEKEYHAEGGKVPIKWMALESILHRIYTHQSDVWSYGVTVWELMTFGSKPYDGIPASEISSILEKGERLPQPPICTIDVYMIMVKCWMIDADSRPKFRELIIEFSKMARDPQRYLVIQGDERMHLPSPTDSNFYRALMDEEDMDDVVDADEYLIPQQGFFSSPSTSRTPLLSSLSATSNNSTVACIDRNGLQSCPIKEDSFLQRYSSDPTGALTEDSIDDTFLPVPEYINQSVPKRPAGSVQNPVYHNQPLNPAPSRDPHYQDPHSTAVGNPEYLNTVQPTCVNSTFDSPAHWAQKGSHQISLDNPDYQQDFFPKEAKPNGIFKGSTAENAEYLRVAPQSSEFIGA
In words: Ba/F3 cell proliferation (MTS) assay, T790M/L858R/C797S. It is filed as cell-based, murine. The conditions noted are these: antiproliferative activity.

The term EC50 denotes the concentration at which the effect is half-maximal. With `O=C1CCC(N2C(=O)c3cccc(NCCOCCOCCOCCC(=O)N4CCN(c5ccc(-c6ccc7c(c6)C(=O)N(C(C(=O)Nc6nccs6)c6ccccc6)C7)cc5)CC4)c3C2=O)C(=O)N1` (stereo not drawn) [Compound I-1, 2-(6-(4-(4-(3-(2-(2-(2-((2-(2,6-Dioxopiperidin-3-yl)-1,3-dioxoisoindolin-4-yl)amino)ethoxy)ethoxy)ethoxy)propanoyl)piperazin-1-yl)phenyl)-1-oxoisoindolin-2-yl)-2-phenyl-N-(thiazol-2-yl)acetamide], in assay [1], the EC50 was under 500 nM and the “% control” value is on record as “A (A is 0<% control <25)”. The same compound returned a half-maximal effective concentration (EC50) in assay [2] of 0.5 to 1 µM.
Consider `O=C1CCC(N2C(=O)c3cccc(NC4CN(CCOCCOCCN5CCN(c6ccc(-c7ccc8c(c7)C(=O)N(C(C(=O)Nc7nccs7)c7ccccc7)C8)cc6)CC5)C4)c3C2=O)C(=O)N1` (stereo not drawn) [Compound I-15, 2-(6-(4-(4-(2-(2-(2-(3-((2-(2,6-Dioxopiperidin-3-yl)-1,3-dioxoisoindolin-4-yl)amino)azetidin-1-yl)ethoxy)ethoxy)ethyl)piperazin-1-yl)phenyl)-1-oxoisoindolin-2-yl)-2-phenyl-N-(thiazol-2-yl)acetamide], for which, in assay [1], the half-maximal effective concentration (EC50) was in the range of 1000 to 5000 nM and the “% control” value was “C (C is 50<% control <75)”. This compound came in with an EC50 in assay [2] of over 5 µM.
The matching figures for `O=C1CCC(N2C(=O)c3cccc(NCCOCCOCCOCCOCCN4CCN(c5ccc(-c6ccc7c(c6)C(=O)N(C(C(=O)Nc6nccs6)c6ccccc6)C7)cc5)CC4)c3C2=O)C(=O)N1` (stereo not drawn) [Compound I-20, 2-(6-(4-(4-(14-((2-(2,6-Dioxopiperidin-3-yl)-1,3-dioxoisoindolin-4-yl)amino)-3,6,9,12-tetraoxatetradecyl)piperazin-1-yl)phenyl)-1-oxoisoindolin-2-yl)-2-phenyl-N-(thiazol-2-yl)acetamide]: under 500 nM, “A (A is 0<% control <25)” and under 0.5 µM.
For `O=C1CCC(N2C(=O)c3cccc(NCCOCCOCCOCCN4CCN(c5ccc(-c6ccc7c(c6)C(=O)N(C(C(=O)Nc6nccs6)c6ccccc6)C7)cc5)CC4)c3C2=O)C(=O)N1` (stereo not drawn) [Compound I-18, 2-(6-(4-(4-(2-(2-(2-(2-((2-(2,6-Dioxopiperidin-3-yl)-1,3-dioxoisoindolin-4-yl)amino)ethoxy)ethoxy)ethoxy)ethyl)piperazin-1-yl)phenyl)-1-oxoisoindolin-2-yl)-2-phenyl-N-(thiazol-2-yl)acetamide], in that order: under 500 nM, “A (A is 0<% control <25)” and under 0.5 µM.
For `Cc1ncsc1-c1ccc([C@H](C)NC(=O)[C@@H]2C[C@@H](O)CN2C(=O)[C@@H](NC(=O)CCOCCOCCOCCN2CCN(c3ccc(-c4ccc5c(c4)C(=O)N(C(C(=O)Nc4nccs4)c4ccccc4)C5)cn3)CC2)C(C)(C)C)cc1` (stereo partly drawn) [Compound I-23, (2S,4R)-1-((14S)-14-(tert-Butyl)-12-oxo-1-(4-(5-(3-oxo-2-(2-oxo-1-phenyl-2-(thiazol-2-ylamino)ethyl)isoindolin-5-yl)pyridin-2-yl)piperazin-1-yl)-3,6,9-trioxa-13-azapentadecan-15-oyl)-4-hydroxy-N—((S)-1-(4-(4-methylthiazol-5-yl)phenyl)ethyl)pyrrolidine-2-carboxamide], in that order: over 5000 nM, “D (D is 75<% control)” and over 5 µM.
`O=C1CCC(N2C(=O)c3cccc(NCCOCCC(=O)N4CCN(c5ccc(-c6ccc7c(c6)C(=O)N(C(C(=O)Nc6nccs6)c6cc(F)ccc6O)C7)cc5)CC4)c3C2=O)C(=O)N1` (stereo not drawn) [Compound I-29, 2-(6-(4-(4-(3-(2-((2-(2,6-dioxopiperidin-3-yl)-1,3-dioxoisoindolin-4-yl)amino)ethoxy)propanoyl)piperazin-1-yl)phenyl)-1-oxoisoindolin-2-yl)-2-(5-fluoro-2-hydroxyphenyl)-N-(thiazol-2-yl)acetamide]: in assay [1], the EC50 was 500 to 1000 nM and the “% control” value is “A (A is 0<% control <25)”. Besides, the concentration for a half-maximal effect (EC50) in assay [2] is over 5 µM.
The matching figures for `O=C1CCC(N2C(=O)c3cccc(NCCOCCOCCOCCN4CCN(c5ccc(-c6ccc7c(c6)C(=O)N(C(C(=O)Nc6nccs6)c6cc(F)ccc6O)C7)cc5)CC4)c3C2=O)C(=O)N1` (stereo not drawn) [Compound I-10, 2-(6-(4-(4-(2-(2-(2-(2-((2-(2,6-Dioxopiperidin-3-yl)-1,3-dioxoisoindolin-4-yl)amino)ethoxy)ethoxy)ethoxy)ethyl)piperazin-1-yl)phenyl)-1-oxoisoindolin-2-yl)-2-(5-fluoro-2-hydroxyphenyl)-N-(thiazol-2-yl)acetamide]: 1000 to 5000 nM, “B (B is 25<% control <50)” and over 5 µM.
With `O=C1CCC(N2C(=O)c3cccc(NCCOCCOCCOCCN4CCN(c5ccc(-c6ccc7c(c6)C(=O)N(C(C(=O)Nc6nccs6)c6ccccc6O)C7)cn5)CC4)c3C2=O)C(=O)N1` (stereo not drawn) [Compound I-14, 2-(6-(6-(4-(2-(2-(2-(2-((2-(2,6-Dioxopiperidin-3-yl)-1,3-dioxoisoindolin-4-yl)amino)ethoxy)ethoxy)ethoxy)ethyl)piperazin-1-yl)pyridin-3-yl)-1-oxoisoindolin-2-yl)-2-(2-hydroxyphenyl)-N-(thiazol-2-yl)acetamide], the values for the EC50 in assay [1] and in assay [2] were 1000 to 5000 nM and over 5 µM, respectively. The “% control” value in assay [1] was “D (D is 75<% control)”.
The matching figures for `O=C1CCC(N2C(=O)c3cccc(NC4CN(CCOCCOCCOCCN5CCN(c6ccc(-c7ccc8c(c7)C(=O)N(C(C(=O)Nc7nccs7)c7ccccc7)C8)cc6)CC5)C4)c3C2=O)C(=O)N1` (stereo not drawn) [Compound I-16, 2-(6-(4-(4-(2-(2-(2-(2-(3-((2-(2,6-Dioxopiperidin-3-yl)-1,3-dioxoisoindolin-4-yl)amino)azetidin-1-yl)ethoxy)ethoxy)ethoxy)ethyl)piperazin-1-yl)phenyl)-1-oxoisoindolin-2-yl)-2-phenyl-N-(thiazol-2-yl)acetamide]: 1000 to 5000 nM, over 5 µM and “C (C is 50<% control <75)”.
With `O=C1CCC(N2C(=O)c3cccc(NCCCCCCN4CCN(c5ccc(-c6ccc7c(c6)C(=O)N(C(C(=O)Nc6nccs6)c6cc(F)ccc6O)C7)cc5)CC4)c3C2=O)C(=O)N1` (stereo not drawn) [Compound I-11, 2-(6-(4-(4-(6-((2-(2,6-Dioxopiperidin-3-yl)-1,3-dioxoisoindolin-4-yl)amino)hexyl)piperazin-1-yl)phenyl)-1-oxoisoindolin-2-yl)-2-(5-fluoro-2-hydroxyphenyl)-N-(thiazol-2-yl)acetamide], in assay [1], the EC50 lay within 1000 to 5000 nM and the “% control” value is reported as “B (B is 25<% control <50)”. Moreover, in assay [2], the EC50 was over 5 µM.
For `O=C1CCC(N2C(=O)c3cccc(NCCCCCCCCN4CCN(c5ccc(-c6ccc7c(c6)C(=O)N(C(C(=O)Nc6nccs6)c6cc(F)ccc6O)C7)cc5)CC4)c3C2=O)C(=O)N1` (stereo not drawn) [Compound I-12, 2-(6-(4-(4-(8-((2-(2,6-Dioxopiperidin-3-yl)-1,3-dioxoisoindolin-4-yl)amino)octyl)piperazin-1-yl)phenyl)-1-oxoisoindolin-2-yl)-2-(5-fluoro-2-hydroxyphenyl)-N-(thiazol-2-yl)acetamide], in that order: 1000 to 5000 nM, “B (B is 25<% control <50)” and over 5 µM.
